Results: ChEMBL document CHEMBL1201862, “PubChem BioAssay data set” (2004)
Counter-ions that a name gives are not always drawn. Activity calls are given as the source filed them.

Legend:
[1] = system: Streptococcus sp. 'group A'; test: growth inhibition of control SK(-) GAS strain, dose response, counter-screen for streptokinase expression inhibitor project, luminescence, kanamycin, BacTiterGlo, confirmation (AID 1900); type: functional, organism-based
Streptococcus [2] = test: Luminescence Microorganism-Based Dose Response Follow up to Identify Compounds Cytotoxic to Streptococcus. [Related pubchem assays: 1677 (Project Summary), 1915, 1914, 1902 (Retest at Dose), 1900 (Counter Screen), 1662 (Primary HTS)]; type: functional, organism-based
Streptokinase A = target: T1, Streptokinase A (Streptococcus pyogenes serotype M1, UniProt P10520); test: S. pyogenes streptokinase expression inhibitors, potency, dose response, plasminogen activation absorbance, OD405 (AID 1914); type: functional, Streptococcus pyogenes M1 GAS;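 further: secreted streptokinase activity via plasminogen activation per viability signal from cell pellet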
T1 sequence (P10520 whole entry): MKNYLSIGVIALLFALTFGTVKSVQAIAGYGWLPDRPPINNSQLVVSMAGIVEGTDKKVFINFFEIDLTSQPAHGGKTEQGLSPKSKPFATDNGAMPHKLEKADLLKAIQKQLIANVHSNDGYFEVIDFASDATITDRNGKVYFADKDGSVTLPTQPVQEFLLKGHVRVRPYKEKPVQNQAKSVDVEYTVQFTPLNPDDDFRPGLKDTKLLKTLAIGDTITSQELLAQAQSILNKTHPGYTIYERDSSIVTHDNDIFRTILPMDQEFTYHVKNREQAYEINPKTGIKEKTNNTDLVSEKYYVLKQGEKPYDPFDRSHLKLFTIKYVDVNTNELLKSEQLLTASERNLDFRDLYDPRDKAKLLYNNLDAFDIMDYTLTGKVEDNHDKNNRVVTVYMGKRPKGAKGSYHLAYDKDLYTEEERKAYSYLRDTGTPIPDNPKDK

Streptococcus [3] = test: Group A Streptococcus viability loss, dose response, counter-screen for streptokinase expression inhibitor project, luminescence, BacTiterGlo (AID 1915); type: functional, organism-based;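 further: potency for reduction of bacterial viability or growth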
[4] = Luminescence Cell-Based Dose Retest to Confirm Inhibitors of Cancer Stem Cells. [Related pubchem assays (depositor defined):AID2717, AID2721]; type: functional; details: Homo sapiens
SUMO-activating enzyme [5] = target: T2, SUMO-activating enzyme (Homo sapiens, UniProt Q9UBT2); test: SUMOylation inhibitor hit validation, confirmation, SUMOylation inhibitor project, biochemical, AlphaScreen (AID 2018); type: functional
SUMO-activating enzyme [6] = target: T2, SUMO-activating enzyme; test: inhibitors of in vitro SUMOylation cascade, primary screen, biochemical, HTRF, uHTS (AID 2006); type: protein-complex assay
[7] = target: Induced myeloid leukemia cell differentiation protein Mcl-1 (Homo sapiens, UniProt Q07820); test: MCL1-BIM BH3 interaction inhibitors, dose response, biochemical, fluorescence polarization, BIM-BH3 peptide, 1536-well (AID 2217)
Bcl-2-like protein 1 = Bcl-2-like protein 1 (Homo sapiens, UniProt Q07817); test: BCL-XL inhibitors, dose response, selectivity assay for MCL1 inhibitor project, biochemical, fluorescence polarization, 1536-well (AID 2218)
Hexokinase HKDC1 = Hexokinase HKDC1 (Homo sapiens, UniProt Q2TB90); test: HKDC1 hexokinase inhibitors, dose response, biochemical, W721R variant (AID 504729); type: functional
[8] = target: DNA (cytosine-5)-methyltransferase 1 (Homo sapiens, UniProt P26358); test: DNMT1 methyltransferase inhibitors, confirmation, biochemical, fluorescent molecular beacon (AID 602386); type: functional
[9] = target: 26S proteasome non-ATPase regulatory subunit 14 (Homo sapiens, UniProt O00487); test: inhibition of proteasome subunit RPN11 – biochemical, fluorescence polarization, uHTS hits, confirmation (AID 602368); type: functional
[10] = target: 72 kDa type IV collagenase (Homo sapiens, UniProt P08253); test: Dose Response validation of uHTS RPN11 inhibitor hits using a MMP-2 Fluorescence assay.; type: functional
Prothrombin = Prothrombin (Bos taurus, UniProt P00735); test: thrombin inhibition, dose response, biochemical, fluorescence polarization, uHTS hits (AID 602369); type: functional
[11] = target: Eukaryotic translation initiation factor 4E (Mus musculus, UniProt P63073); test: eIF4E–eIF4G protein interaction inhibitors, dose response, biochemical, TR-FRET (AID 855); type: functional;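 further: potency for disrupting eIF4E binding to eIF4GI seen as loss of FRET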
[12] = target: Scavenger receptor class B member 1 (Mus musculus, UniProt Q61009); test: inhibitors of SR-BI mediated HDL lipid uptake, dose response, ldlA[mSR-BI] cells, fluorescence, cherry pick (AID 493194); type: functional, cell-based;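 further: cellular uptake of fluorescent DiI-labeled HDL measured as cell fluorescence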
[13] = target: T3, Tyrosine-protein phosphatase non-receptor type 7 (Homo sapiens, UniProt P35236); type: functional
T3 sequence (P35236 whole entry): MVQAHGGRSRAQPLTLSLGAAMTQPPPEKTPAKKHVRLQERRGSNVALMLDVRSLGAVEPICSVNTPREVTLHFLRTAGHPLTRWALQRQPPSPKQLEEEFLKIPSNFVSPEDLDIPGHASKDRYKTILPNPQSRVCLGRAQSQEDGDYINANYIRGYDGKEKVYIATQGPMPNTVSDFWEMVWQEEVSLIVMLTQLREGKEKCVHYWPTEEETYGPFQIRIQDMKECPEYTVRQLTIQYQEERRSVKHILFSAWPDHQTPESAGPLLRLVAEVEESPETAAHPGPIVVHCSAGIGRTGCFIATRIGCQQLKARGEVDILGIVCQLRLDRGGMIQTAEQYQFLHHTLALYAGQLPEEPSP

[14] = target: Glyceraldehyde-3-phosphate dehydrogenase (Homo sapiens, UniProt P04406)
[15] = target: Heat shock cognate 71 kDa protein (Homo sapiens, UniProt P11142); test: In Vitro Hsc70 Dose Response Fluorescence Polarization Assay. [Related pubchem assays: 1072 ]
[16] = target: Heat shock 70 kDa protein 1A (Homo sapiens, UniProt P0DMV8); test: Hsp70 inhibitors, SAR follow-up, biochemical, fluorescence polarization (AID 1072)
[17] = target: T4, Dual specificity protein phosphatase 6 (Rattus norvegicus, UniProt Q64346)
T4 sequence (Q64346 whole entry): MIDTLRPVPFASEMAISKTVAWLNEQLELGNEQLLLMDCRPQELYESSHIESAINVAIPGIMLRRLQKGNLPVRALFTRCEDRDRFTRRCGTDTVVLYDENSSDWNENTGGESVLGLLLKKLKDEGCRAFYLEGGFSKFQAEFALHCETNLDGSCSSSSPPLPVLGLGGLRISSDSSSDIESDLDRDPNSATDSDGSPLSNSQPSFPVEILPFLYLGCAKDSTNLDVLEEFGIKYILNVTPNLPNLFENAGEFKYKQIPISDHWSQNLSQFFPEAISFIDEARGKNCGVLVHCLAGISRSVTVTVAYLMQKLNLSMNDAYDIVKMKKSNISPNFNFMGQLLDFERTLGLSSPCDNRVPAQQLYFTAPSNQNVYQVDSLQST

[18] = target: T4, Dual specificity protein phosphatase 6; type: functional
[19] = cytotoxicity in HEK-293T cells, dose response, cytotoxicity control for BCR NF-kB inhibitor project, luminescence, B-cell screen hits (AID 489021); type: functional, cell-based;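 further: HEK-293T cells carrying an NF-kB luciferase reporter; cells exposed to compound for about 14 hours before viability readout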
[20] = NIH-3T3 fibroblast cytotoxicity, dose response, cytotoxicity control, cell-based, fluorescence, Alamar Blue, secondary assay (AID 2327); type: functional;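 further: NIH-3T3 mouse fibroblasts cultured with fluconazole at 8 µg/mL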
[21] = target: Serine/threonine-protein phosphatase PP1-alpha catalytic subunit (Homo sapiens, UniProt P62136); test: PP1 phosphatase inhibitors, dose response, biochemical, fluorescence (AID 2403);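 further: phosphatase turnover of OMFP into fluorescent 3-O-methylfluorescein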
[22] = C. albicans growth with fluconazole, confirmation, fluorescence, retest (AID 2467); type: functional, cell-based
[23] = cytotoxicity in HPDE-C7 cells, cell-based, fluorescence, HTS (AID 430); type: functional; details: Homo sapiens
[24] = cytotoxicity in KRAS-transformed pancreatic duct cells, primary screen, cell-based, fluorescence, HTS (AID 431); type: functional; details: Homo sapiens;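 further: cell line used: HPDE-C7K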
[25] = target: Serine/threonine-protein phosphatase (Homo sapiens, UniProt Q9BPW0); test: Counterscreen for inhibitors of PP1: fluorescence-based biochemical high throughput dose response assay to identify inhibitors of Protein Phosphatase 5 (PP5). [Related pubchem assays: 2034 (Summary (PP5 inhibitors)), 1987 (PP5 inhibitors in singlate), 2235 (PP1 inhibitors in singlate)]
Estrogen receptor beta = Estrogen receptor beta (Homo sapiens, UniProt Q92731); test: ERβ–SRC-3 coactivator interaction inhibitors, confirmation, orthogonal assay, biochemical, ELISA, streptavidin-HRP readout (AID 1060)
[26] = target: T5, Mannose-6-phosphate isomerase (Homo sapiens, UniProt P34949); test: human PMI inhibitors, high substrate, primary screen, biochemical, fluorescence intensity, high mannose 6-phosphate (AID 1220)
T5 sequence (P34949 whole entry): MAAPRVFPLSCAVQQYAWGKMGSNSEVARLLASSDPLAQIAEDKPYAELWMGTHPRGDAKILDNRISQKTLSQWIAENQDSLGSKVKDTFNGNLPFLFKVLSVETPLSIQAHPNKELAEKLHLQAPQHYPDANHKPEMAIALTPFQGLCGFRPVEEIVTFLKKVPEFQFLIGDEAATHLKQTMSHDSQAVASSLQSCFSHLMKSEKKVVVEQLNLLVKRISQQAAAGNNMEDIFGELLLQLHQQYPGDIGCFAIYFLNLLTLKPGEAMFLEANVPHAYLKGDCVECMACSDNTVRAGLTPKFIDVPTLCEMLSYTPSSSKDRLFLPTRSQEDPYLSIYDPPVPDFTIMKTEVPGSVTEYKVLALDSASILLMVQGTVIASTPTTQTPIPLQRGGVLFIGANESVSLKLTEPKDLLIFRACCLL

[27] = target: T6, Heat shock factor protein 1 (Mus musculus, UniProt P38532); test: HSF1 potentiators in luciferase reporter cells, confirmation, cell-based, NIH3T3, luminescence, dose retest (AID 435004); type: functional;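 further: stress induced by proteasome inhibitor MG132 added 30 min after compound; luciferase reporter driven by HSF1 response element in NIH3T3 cells; actives raise luminescence as potentiators of the MG132 stress response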
T6 sequence (P38532 whole entry): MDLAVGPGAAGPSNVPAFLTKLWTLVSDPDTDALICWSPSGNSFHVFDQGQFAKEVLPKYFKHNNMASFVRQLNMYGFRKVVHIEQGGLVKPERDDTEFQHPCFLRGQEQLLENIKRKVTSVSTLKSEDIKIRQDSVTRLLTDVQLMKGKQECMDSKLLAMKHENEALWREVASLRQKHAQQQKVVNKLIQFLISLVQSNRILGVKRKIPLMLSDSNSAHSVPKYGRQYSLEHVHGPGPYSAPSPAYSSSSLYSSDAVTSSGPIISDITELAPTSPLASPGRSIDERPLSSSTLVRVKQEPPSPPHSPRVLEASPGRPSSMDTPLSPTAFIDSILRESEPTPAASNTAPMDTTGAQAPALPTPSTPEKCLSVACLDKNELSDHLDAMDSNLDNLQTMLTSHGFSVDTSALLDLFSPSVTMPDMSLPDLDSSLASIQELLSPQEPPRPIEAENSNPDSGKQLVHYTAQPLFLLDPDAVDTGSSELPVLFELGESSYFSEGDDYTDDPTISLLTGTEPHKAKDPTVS

Wee1-like protein kinase = Wee1-like protein kinase (Homo sapiens, UniProt P30291); test: G2/M cell cycle arrest in HeLa, late-stage follow-up, mechanism study for Wee1 degradation inhibitor project, FACS, panel member Wee1 Degradation (AID 2088)
[28] = target: G2/mitotic-specific cyclin-B1 (Homo sapiens, UniProt P14635); test: G2/M cell cycle arrest in HeLa, late-stage follow-up, mechanism study for Wee1 degradation inhibitor project, FACS, panel member Cyclin B Degradation (AID 2088)
Beta-galactosidase = Beta-galactosidase (Escherichia coli, UniProt Q8VNN2); type: functional

T2 sequence (Q9UBE0 whole entry): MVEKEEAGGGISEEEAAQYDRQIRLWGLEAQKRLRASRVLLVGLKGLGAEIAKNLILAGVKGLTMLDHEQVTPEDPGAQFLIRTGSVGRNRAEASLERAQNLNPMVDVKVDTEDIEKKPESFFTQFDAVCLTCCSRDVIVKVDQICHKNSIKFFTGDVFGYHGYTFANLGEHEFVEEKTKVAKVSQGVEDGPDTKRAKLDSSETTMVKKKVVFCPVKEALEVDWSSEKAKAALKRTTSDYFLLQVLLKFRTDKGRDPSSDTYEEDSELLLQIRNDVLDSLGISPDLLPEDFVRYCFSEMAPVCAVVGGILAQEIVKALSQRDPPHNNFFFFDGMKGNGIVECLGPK
T2 sequence (Q9UBT2 whole entry): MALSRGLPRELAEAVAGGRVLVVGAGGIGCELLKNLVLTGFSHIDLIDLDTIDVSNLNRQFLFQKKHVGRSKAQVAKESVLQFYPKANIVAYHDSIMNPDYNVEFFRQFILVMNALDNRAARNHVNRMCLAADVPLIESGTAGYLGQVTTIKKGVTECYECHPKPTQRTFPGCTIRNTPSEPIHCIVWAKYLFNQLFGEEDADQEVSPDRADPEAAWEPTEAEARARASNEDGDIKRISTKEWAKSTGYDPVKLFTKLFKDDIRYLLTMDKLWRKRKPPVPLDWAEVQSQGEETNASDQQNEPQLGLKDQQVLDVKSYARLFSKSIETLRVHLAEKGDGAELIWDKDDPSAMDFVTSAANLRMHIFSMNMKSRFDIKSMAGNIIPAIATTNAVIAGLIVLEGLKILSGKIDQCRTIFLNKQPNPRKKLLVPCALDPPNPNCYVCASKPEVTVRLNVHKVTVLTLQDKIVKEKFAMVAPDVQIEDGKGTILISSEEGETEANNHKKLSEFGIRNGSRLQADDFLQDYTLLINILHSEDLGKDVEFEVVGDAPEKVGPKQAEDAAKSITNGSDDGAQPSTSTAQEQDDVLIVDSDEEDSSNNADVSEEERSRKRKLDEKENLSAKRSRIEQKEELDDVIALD
Glyceraldehyde-3-phosphate dehydrogenase, sequence (P04406 whole entry): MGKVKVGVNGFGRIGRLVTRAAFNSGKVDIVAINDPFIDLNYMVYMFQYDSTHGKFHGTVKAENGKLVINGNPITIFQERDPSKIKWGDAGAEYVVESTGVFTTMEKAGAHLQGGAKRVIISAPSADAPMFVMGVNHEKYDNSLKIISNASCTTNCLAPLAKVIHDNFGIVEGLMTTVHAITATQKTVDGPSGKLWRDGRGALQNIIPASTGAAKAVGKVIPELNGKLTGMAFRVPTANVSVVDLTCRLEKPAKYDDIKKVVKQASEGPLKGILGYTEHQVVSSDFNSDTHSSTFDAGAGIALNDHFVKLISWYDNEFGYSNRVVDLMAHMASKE
72 kDa type IV collagenase, sequence (P08253 whole entry): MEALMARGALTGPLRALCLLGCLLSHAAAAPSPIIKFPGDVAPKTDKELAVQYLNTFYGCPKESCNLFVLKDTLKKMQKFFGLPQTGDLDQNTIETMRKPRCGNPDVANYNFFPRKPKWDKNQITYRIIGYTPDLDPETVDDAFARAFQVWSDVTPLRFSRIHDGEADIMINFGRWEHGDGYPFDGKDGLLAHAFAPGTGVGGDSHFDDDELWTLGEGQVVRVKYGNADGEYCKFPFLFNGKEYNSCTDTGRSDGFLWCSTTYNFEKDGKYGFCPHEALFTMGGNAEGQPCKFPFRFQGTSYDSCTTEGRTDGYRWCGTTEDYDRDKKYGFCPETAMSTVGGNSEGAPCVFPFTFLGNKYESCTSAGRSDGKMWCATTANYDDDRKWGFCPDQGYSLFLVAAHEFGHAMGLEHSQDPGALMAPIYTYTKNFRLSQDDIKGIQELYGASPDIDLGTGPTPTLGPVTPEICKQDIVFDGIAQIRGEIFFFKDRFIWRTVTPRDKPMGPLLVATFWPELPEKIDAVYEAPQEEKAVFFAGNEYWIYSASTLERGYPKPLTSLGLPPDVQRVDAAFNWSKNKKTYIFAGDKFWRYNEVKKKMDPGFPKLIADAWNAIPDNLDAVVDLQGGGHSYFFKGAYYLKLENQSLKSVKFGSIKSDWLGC
DNA (cytosine-5)-methyltransferase 1, sequence (P26358 whole entry): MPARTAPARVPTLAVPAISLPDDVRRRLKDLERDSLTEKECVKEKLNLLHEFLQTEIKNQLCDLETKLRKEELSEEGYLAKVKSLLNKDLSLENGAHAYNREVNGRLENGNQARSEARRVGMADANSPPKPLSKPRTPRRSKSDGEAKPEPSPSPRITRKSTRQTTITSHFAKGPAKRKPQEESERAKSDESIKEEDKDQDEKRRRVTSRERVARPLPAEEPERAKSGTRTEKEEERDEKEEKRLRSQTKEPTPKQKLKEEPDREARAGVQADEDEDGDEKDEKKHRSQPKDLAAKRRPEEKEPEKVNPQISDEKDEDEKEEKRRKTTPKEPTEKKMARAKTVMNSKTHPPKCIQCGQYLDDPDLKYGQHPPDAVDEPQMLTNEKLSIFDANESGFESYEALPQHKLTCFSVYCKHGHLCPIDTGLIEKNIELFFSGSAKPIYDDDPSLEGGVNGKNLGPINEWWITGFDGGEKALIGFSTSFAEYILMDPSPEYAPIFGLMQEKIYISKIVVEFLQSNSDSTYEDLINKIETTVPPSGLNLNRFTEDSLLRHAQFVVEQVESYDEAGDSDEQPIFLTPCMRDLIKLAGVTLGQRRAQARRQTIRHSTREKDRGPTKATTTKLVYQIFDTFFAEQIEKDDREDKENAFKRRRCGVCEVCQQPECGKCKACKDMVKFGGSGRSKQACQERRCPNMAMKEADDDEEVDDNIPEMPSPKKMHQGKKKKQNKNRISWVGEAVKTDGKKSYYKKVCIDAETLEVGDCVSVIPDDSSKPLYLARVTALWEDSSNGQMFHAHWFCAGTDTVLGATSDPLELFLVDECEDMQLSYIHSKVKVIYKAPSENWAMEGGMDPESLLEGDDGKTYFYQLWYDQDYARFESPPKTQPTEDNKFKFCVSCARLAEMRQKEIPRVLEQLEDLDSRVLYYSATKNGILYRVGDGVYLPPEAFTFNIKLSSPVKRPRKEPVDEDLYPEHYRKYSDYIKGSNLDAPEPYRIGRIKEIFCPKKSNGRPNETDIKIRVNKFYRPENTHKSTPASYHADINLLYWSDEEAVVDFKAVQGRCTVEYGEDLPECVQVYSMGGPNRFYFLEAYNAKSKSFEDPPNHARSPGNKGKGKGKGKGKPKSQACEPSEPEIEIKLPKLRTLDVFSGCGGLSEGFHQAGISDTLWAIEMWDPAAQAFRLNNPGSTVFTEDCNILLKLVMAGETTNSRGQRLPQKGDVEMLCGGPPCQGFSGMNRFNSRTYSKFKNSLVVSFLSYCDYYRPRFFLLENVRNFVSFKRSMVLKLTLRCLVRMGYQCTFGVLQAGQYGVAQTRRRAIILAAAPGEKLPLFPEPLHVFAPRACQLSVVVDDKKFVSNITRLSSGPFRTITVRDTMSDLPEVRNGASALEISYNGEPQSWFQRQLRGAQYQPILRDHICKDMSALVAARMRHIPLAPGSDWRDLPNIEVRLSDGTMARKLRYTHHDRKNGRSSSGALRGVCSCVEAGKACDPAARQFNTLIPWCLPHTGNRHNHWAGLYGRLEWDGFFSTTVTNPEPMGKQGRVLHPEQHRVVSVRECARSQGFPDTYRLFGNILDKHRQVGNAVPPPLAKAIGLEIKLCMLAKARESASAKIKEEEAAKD
Serine/threonine-protein phosphatase, sequence (Q9BPW0 whole entry): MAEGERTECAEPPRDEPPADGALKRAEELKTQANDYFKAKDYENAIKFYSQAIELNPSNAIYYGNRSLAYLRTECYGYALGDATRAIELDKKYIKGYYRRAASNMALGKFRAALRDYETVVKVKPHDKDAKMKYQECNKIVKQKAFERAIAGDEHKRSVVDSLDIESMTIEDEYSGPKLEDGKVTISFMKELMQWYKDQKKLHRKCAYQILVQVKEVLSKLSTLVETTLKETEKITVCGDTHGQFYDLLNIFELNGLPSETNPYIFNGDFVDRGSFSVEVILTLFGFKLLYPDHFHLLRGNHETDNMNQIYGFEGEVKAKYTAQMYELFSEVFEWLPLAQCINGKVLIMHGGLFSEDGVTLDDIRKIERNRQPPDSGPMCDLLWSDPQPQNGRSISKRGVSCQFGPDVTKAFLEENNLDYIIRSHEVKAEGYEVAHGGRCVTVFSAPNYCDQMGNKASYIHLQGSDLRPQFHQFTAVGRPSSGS
G2/mitotic-specific cyclin-B1, sequence (P14635 whole entry): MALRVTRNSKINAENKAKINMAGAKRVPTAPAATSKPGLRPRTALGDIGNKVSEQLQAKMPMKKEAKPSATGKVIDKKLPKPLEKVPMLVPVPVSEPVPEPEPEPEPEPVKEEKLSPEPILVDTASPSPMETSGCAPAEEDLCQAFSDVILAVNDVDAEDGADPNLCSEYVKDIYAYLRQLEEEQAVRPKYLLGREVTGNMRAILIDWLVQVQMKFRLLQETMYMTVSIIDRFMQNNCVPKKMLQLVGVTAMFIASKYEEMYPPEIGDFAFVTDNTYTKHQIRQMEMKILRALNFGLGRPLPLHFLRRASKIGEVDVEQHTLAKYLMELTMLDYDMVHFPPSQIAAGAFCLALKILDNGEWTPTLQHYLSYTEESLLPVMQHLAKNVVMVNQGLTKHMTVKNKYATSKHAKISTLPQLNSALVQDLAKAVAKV
Scavenger receptor class B member 1, sequence (Q61009 whole entry): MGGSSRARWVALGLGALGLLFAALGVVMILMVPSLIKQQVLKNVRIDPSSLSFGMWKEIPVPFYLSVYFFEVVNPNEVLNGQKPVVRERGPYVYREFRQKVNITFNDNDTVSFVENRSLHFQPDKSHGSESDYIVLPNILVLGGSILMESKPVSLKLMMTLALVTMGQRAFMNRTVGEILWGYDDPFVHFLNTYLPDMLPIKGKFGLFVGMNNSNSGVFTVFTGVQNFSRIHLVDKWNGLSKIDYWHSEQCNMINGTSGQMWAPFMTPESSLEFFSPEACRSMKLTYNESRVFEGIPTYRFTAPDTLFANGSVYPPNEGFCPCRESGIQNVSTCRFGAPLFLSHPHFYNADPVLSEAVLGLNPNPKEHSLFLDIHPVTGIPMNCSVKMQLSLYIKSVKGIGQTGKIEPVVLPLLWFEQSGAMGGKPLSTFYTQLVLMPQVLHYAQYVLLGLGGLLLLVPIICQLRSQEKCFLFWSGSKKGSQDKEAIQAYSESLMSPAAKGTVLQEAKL

## CCCCn1c(=O)c(C(=O)NCc2ccccc2)c(O)c2ccccc21
[1]
  EC50: 17.5 µM (active)
Streptococcus [2]
  EC50: > 500 µM (not active)
Streptokinase A
  EC50: 6.35 µM (active)
Streptococcus [3]
  EC50: > 150 µM (inconclusive)
[4]
  AC50: 8.37 µM (active)

## COc1ccc(OC)c(/C=C2\SC(NNC(=O)c3ccc4ccccc4c3)=NC2=O)c1
SUMO-activating enzyme [5]
  IC50: 2.14 µM (active)
SUMO-activating enzyme [6]
  IC50: 18.1 µM (active)
[4]
  AC50: 2.36 µM (active)

## N#Cc1c(SCC(=O)Nc2nc3ccc(Br)cc3s2)sc2c(O)cc(=O)[nH]c12
[7]
  IC50: > 109 µM (not active)
Bcl-2-like protein 1
  IC50: > 109 µM (not active)
Hexokinase HKDC1
  IC50: 24.8 µM (inactive)
[8]
  IC50: 8.28 µM (active)
[9]
  IC50: 12.8 µM (active)
[10]
  IC50: 3.94 µM (active)
Prothrombin
  IC50: 71.2 µM (active)

## O=C(/C=N/O)Nc1ccc(F)cc1
[11]
  IC50: > 64 µM (inactive)

## OC1CCN(c2cc(-c3ccccc3)nc3cc(-c4ccc(F)cc4)nn23)CC1
[4]
  AC50: 4.72 µM (active)
[12]
  AC50: 11.8 µM (active)

## O=C(O)c1ccc([N+](=O)[O-])c2c1NC(C(=O)O)C1CC=CC21 (configuration not stated)
[13]
  IC50: 92.9 µM (active)
[14]
  IC50: > 100 µM (not active)
[15]
  IC50: > 100 µM (not active)
[16]
  IC50: 90.6 µM (active)
[17]
  IC50: > 100 µM (inactive)
[18]
  IC50: > 100 µM (inactive)

## O=C(CSCCO)Nc1ccc(C23C[C@H]4C[C@@H](C2)C[C@@H](C3)C4)cc1
[19]
  IC50: > 80 µM (inactive)

## Oc1c(C(c2ccccn2)N2CCOCC2)ccc2cccnc12 (configuration not stated)
[20]
  EC50: > 150 µM (inactive)
[21]
  IC50: 2.36 µM (active)
[22]
  EC50: > 38 µM (not active)
[23]
  EC50: > 20 µM (not active)
[24]
  EC50: > 20 µM (not active)
[25]
  IC50: > 67 µM (not active)
Estrogen receptor beta
  IC50: > 50 µM (not active)
[26]
  IC50: > 50 µM (not active)
[27]
  EC50: 74.8 µM (active)

## Cc1cc(Br)ccc1NC(=O)CCCOc1cc(=O)n(C)c2ccccc12
Wee1-like protein kinase
  EC50: > 49.7 µM (inactive)
[28]
  EC50: > 49.7 µM (inactive)

## C=CCN1CC[C@]23c4c5ccc(O)c4O[C@H]2C(=O)CC[C@@]3(O)[C@H]1C5 [NALOXONE HYDROCHLORIDE]
Beta-galactosidase
  EC50: > 31.5 µM (inactive)
